This is an account of results in ChEMBL document CHEMBL1201862, “PubChem BioAssay data set” (2004).

SMILES strings stand for the structures.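 48-hour exposure; five concentrations; linearly interpolated endpoints. Abbreviation: GI50, concentration required for 50% inhibition of growth.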 Activity calls are given as the source filed them. Cut-off read from the data, not from the text of the source: active = GI50 up to about 1.1 µM and inactive = higher. Where only a bound is given, the exact number is not on record here.

Experiment in all cases: DTP human tumour cell line panel, 48 h
In test [1] the test system is CAKI-1.
The test system of test [2] is DLD-1.
For test [3], the system named is DMS-273.
In test [4] the test system is HCT-116.
The subject of test [5] is HL-60.
The test system of test [6] is KM12.
Test [7] concerns LOX IMVI.
For test [8], the system named is M14.
In test [9] the test system is NCI-H460.
Test [10] deals with OVCAR-8.
In test [11] the test system is RPMI-8226.
Test [12] relates to SF-268.
Test [13] relates to SK-MEL-28.
For test [14], the system named is SNB-19.
In test [15] the test system is SNB-78.
Test [16] has as its system TK-10.
Test [17] has as its system UACC-257.
Test [18] deals with XF498.
Test [19] has as its system NCI/ADR-RES.
Test [20] relates to MDA-N.

With `Cc1ccc(C)c(NC(=O)C(=O)C(C(=O)c2ccc3ccccc3c2)C2OC(=O)c3ccccc32)c1` (stereo not given), the GI50 was 20 µM (inactive) in test [1]; 23 µM (inactive) in test [2]; 3.87 µM (inactive) in test [3]; 12.3 µM (inactive) in test [4]; 17.1 µM (inactive) in test [5]; 14.2 µM (inactive) in [6]. Besides, the GI50 in [7] was 13.6 µM (inactive); in [8], 14.6 µM (inactive); in test [9], 11.6 µM (inactive); in [10], 7.82 µM (inactive); in test [11] it was 22.2 µM (inactive); in test [12], 3.57 µM (inactive). In addition, the GI50 in test [13] was 12.4 µM (inactive); in test [14], 8 µM (inactive); in test [15] it was 17.9 µM (inactive); in [16] it was 19.2 µM (inactive); in test [17] it was 15.5 µM (inactive); in test [18], 14.5 µM (inactive).

Take `OC1CCSc2ccccc21` (stereo not given): the GI50 in test [1], in test [2], in test [3], in [4], in [6] and in [7] was > 100 µM (inactive) each time. For the same compound, the GI50 in test [8], in [9], in [10], in test [11], in test [12] and in test [13] was > 100 µM (inactive) in each case. Further, the GI50 in test [14] and in [18] was > 100 µM (inactive) throughout.

For the compound `CC[C@@]1(O)C[C@H](OC2CC(N(C)C)C(O)C(C)O2)c2c(cc3c(c2O)C(=O)c2c(O)ccc(O)c2C3=O)[C@H]1C(=O)OC` (stereo not given in full), the 50% growth inhibitory concentration (GI50) is 0.027 µM (active) in [1]; 0.0514 µM (active) in [2]; 0.0213 µM (active) in test [3]; 0.0229 µM (active) in test [4]; 0.0457 µM (active) in test [5]; 0.0635 µM (active) in [6]. In addition, the GI50 was 0.0229 µM (active) in test [7]; 0.0221 µM (active) in [9]; 0.0526 µM (active) in [19]; 0.0239 µM (active) in test [10]; 0.0364 µM (active) in [11]; 0.0536 µM (active) in test [12]. For the same compound, the GI50 in test [13] is 0.148 µM (active); in test [14], 0.0991 µM (active); in test [15], 0.153 µM (active); in test [17], 0.0863 µM (active); in [18], 0.106 µM (active).

As to `O=C(Nc1ccc(Cl)cc1)C(=O)C(C(=O)c1ccccc1-c1ccccc1)C1OC(=O)c2ccccc21` (stereo not given), the GI50 in test [1] was 24 µM (inactive); in test [2] it was 29 µM (inactive); in test [3], 29 µM (inactive); in test [4] it was 18.2 µM (inactive); in [5], 18.5 µM (inactive); in test [6] it was 17.3 µM (inactive). Moreover, the GI50 in [7] was 14.6 µM (inactive); in [8] it was 20 µM (inactive); in test [9], 19.4 µM (inactive); in test [10], 15.5 µM (inactive); in test [11] it was 26.9 µM (inactive); in [12] it was 21.3 µM (inactive). For the same compound, the GI50 in test [13] is 18.4 µM (inactive); in test [14], 16.6 µM (inactive); in [15], > 100 µM (inactive); in [16], 21.4 µM (inactive); in test [17] it was 21.9 µM (inactive); in test [18], 17.9 µM (inactive).

With `Cc1cccc(C(O)c2ccccn2)c1O` (stereo not given), the GI50 in test [1], in test [4], in test [5], in test [6], in [7] and in test [20] was > 100 µM (inactive) throughout. In addition, the GI50 in test [9], in test [19], in test [10], in test [11], in [12] and in test [13] was > 100 µM (inactive) in each case. The GI50 in [14], in test [16] and in [17] was > 100 µM (inactive) throughout.

Regarding `O=C(N/C=C1\C(=O)Oc2ccccc2C1=O)NC1CCCCC1`, the GI50 is > 100 µM (inactive) in test [3]; 78.5 µM (inactive) in test [4]; 40 µM (inactive) in [5]; 85.3 µM (inactive) in test [7]; 50.2 µM (inactive) in test [8]; > 100 µM (inactive) in test [9]. In addition, the GI50 in [10] is > 100 µM (inactive); in [11] it was > 100 µM (inactive); in test [12], 41.2 µM (inactive); in [13] it was 46.7 µM (inactive); in [14], 42.7 µM (inactive); in test [15] it was 22.9 µM (inactive). The results for the GI50 in test [16], in test [17] and in test [18] were > 100 µM (inactive), 69.7 µM (inactive) and 21.4 µM (inactive), respectively.

Take `CN1C[C@H]2[C@@H](C1=O)[C@H](c1ccc([N+](=O)[O-])cc1)ON2C`: the GI50 in [1], in test [4], in [5], in test [7], in [8] and in [20] was > 100 µM (inactive) in each case. Moreover, the GI50 in test [9], in [19], in test [10], in test [11], in [13] and in test [14] was > 100 µM (inactive) each time. Besides, the GI50 in test [16] and in [17] was > 100 µM (inactive) throughout.

For `OC(c1cccnc1Cl)c1nc2ccccc2c2ccnc(Cl)c12` (stereo not given), the GI50 in test [1] is 6.25 µM (inactive); in test [4] it was 3.35 µM (inactive); in [5], 2.77 µM (inactive); in test [6], 2.94 µM (inactive); in test [7], 7.01 µM (inactive); in [8] it was 2.08 µM (inactive). In addition, the concentration for 50% growth inhibition (GI50) in test [20] was 0.69 µM (active); in [9] it was 4.4 µM (inactive); in test [19], 2.88 µM (inactive); in [10], 9.12 µM (inactive); in test [11], 2.34 µM (inactive); in test [12], 6.21 µM (inactive). For the same compound, the GI50 in test [13] was 23.7 µM (inactive); in test [14] it was 6.82 µM (inactive); in test [16], 24.3 µM (inactive); in test [17], > 100 µM (inactive).

With `CC(C)=CC1CC(=O)C1(C)Sc1ccccc1` (stereo not given), the GI50 in test [1] was 54.7 µM (inactive); in [2], 52.8 µM (inactive); in [4] it was 29.6 µM (inactive); in test [5], 22.8 µM (inactive); in test [6], > 100 µM (inactive); in [7], 17.3 µM (inactive). Besides, the GI50 was 96.4 µM (inactive) in test [8]; 25 µM (inactive) in test [9]; > 100 µM (inactive) in test [10]; 20.6 µM (inactive) in test [11]; 51.3 µM (inactive) in test [12]; > 100 µM (inactive) in [13]. Moreover, the GI50 is 67.8 µM (inactive) in test [14]; 60.1 µM (inactive) in test [15]; > 100 µM (inactive) in test [16]; 45.5 µM (inactive) in test [17]; 37.7 µM (inactive) in test [18].

With `O=S(=O)(O)c1ccc(/N=N\c2ccc(/N=N\c3ccc(/C=C/c4ccc(/N=[N+](/[O-])c5ccc(/C=C/c6ccc(/N=N/c7ccc(/N=N\c8ccc(S(=O)(=O)O)cc8)cc7)cc6S(=O)(=O)O)c(S(=O)(=O)O)c5)cc4S(=O)(=O)O)c(S(=O)(=O)O)c3)cc2)cc1`, the GI50 in [2], in test [3], in test [4], in test [5], in test [6] and in [7] was > 100 µM (inactive) throughout. Also, the GI50 in [9], in test [19], in [10], in [11], in [12] and in test [13] was > 100 µM (inactive) in each case. Moreover, the GI50 in [14], in [17] and in [18] was > 100 µM (inactive) in each case.

In the case of `COc1cc(O)c2c(c1)C(=O)c1cc3c(c(O)c1C2=O)C(OC1OC(C)C(O)C(O)C1OC)C(OC)C(C)(O)C3=O` (stereo not given), the GI50 is 2.22 µM (inactive) in [2]; 0.644 µM (active) in test [3]; 2 µM (inactive) in test [7]; 1.53 µM (inactive) in test [9]; 3.48 µM (inactive) in [19]; 2.12 µM (inactive) in test [12]. In addition, the GI50 in test [14] is 2.94 µM (inactive); in test [15] it was 3.76 µM (inactive); in [17], 0.723 µM (active); in [18], 3.95 µM (inactive).

As for `O=Cc1c(Cn2ccnc2)c2cc([N+](=O)[O-])ccc2n1Cc1ccccc1`, the GI50 in test [1] is > 68.4 µM (inactive); in [2], > 100 µM (inactive); in test [3], > 100 µM (inactive); in [4], 52 µM (inactive); in [6], 73.3 µM (inactive); in test [7], > 100 µM (inactive). Also, the GI50 in test [9] was 37.3 µM (inactive); in test [19] it was > 61.8 µM (inactive); in test [10], > 81.3 µM (inactive); in test [11] it was > 100 µM (inactive); in test [12], > 92.7 µM (inactive); in [13] it was > 100 µM (inactive). In addition, the GI50 in [14] is 49.3 µM (inactive); in [15], > 72.4 µM (inactive); in test [17], > 100 µM (inactive); in [18], > 100 µM (inactive).

One may read the GI50 as the concentration that inhibits growth by half.
